Among the data in ChEMBL document CHEMBL3763075, “Evaluation of phenylcyclopropylamine compounds by enzymatic assay of lysine-specific demethylase 2 in the presence of NPAC peptide” (Bioorg Med Chem Lett, 2016) are IC50 values, retold here.

The term IC50 denotes the midpoint of a concentration-inhibition curve. A higher IC50 goes with weaker potency.

This experiment concerns the target T1, Lysine-specific histone demethylase 2 (Homo sapiens, UniProt Q8NB78).
T1 sequence (Q8NB78 whole entry): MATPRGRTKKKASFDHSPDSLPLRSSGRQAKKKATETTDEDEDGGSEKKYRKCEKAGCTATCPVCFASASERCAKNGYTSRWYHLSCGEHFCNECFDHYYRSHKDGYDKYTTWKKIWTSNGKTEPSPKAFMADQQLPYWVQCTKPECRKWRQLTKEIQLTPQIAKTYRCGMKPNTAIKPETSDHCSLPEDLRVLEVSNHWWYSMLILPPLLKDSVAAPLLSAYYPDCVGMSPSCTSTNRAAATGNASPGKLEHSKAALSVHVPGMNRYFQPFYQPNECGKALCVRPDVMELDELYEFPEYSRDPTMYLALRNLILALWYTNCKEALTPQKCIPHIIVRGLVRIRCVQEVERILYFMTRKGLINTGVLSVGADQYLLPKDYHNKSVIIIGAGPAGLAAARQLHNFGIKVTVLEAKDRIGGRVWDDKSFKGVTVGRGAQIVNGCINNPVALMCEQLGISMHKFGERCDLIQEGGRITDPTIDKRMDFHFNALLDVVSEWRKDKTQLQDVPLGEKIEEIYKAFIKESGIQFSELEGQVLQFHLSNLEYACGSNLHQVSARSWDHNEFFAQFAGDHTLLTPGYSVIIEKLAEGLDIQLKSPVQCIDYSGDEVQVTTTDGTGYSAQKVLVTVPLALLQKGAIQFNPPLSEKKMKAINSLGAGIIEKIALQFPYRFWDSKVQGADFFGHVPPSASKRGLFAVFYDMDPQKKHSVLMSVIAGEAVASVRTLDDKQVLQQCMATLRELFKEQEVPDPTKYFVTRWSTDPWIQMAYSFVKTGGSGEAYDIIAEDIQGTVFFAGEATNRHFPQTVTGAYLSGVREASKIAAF
Description: Inhibition of recombinant human LSD2 using H3K4 peptide as substrate assessed as decrease in H3K4 demethylation after 1 hr by mass spectroscopic analysis
The compound `O=C(N[C@@H](CCCCNC1CC1c1ccccc1)C(=O)NCc1ccc(Cl)cc1)c1ccc(-c2ccccc2)cc1` (stereo partly drawn) had an IC50 of 250 µM.
The figure for `O=C(N[C@@H](CCCCNC1CC1c1ccccc1)C(=O)NCc1cccc(C(F)(F)F)c1)c1ccc(-c2ccccc2)cc1` (stereo partly drawn) is more than 540 µM; for `O=C(N[C@@H](CCCCNC1CC1c1ccccc1)C(=O)NCc1ccccc1)c1ccc(-c2ccccc2)cc1` (stereo partly drawn) it is 230 µM.
